Assay results taken from paper PMC8557913, “Characterization of Phosphopantetheinyl Hydrolase from Mycobacterium tuberculosis” (Microbiology Spectrum, 2021).

Columns and labels:
[1] = target: T1, Sfp (Bacillus subtilis, UniProt P39135); test: transfer of biotin-labelled Ppt to apo-carrier protein, streptavidin blot; type: biochemical; settings: labelled compound; co-substrate apo-AcpM (also PKS13 ACP, EcEntB, EcACP, KpACP, PaACP); 50 mM Tris-HCl pH 7.5, 15 mM MgCl2, 37°C
T1 sequence (P39135 1-224): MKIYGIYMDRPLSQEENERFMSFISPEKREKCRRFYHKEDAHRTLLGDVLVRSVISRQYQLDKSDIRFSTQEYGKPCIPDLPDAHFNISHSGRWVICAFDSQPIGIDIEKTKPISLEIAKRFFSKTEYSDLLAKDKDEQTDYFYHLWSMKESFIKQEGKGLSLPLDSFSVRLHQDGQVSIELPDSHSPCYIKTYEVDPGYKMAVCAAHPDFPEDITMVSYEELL

[2] = target: PptH (Rv2795c) (Mycobacterium tuberculosis, UniProt I6YEE1); test: biochemical
PptH (Rv2795c), sequence (I6YEE1 1-310): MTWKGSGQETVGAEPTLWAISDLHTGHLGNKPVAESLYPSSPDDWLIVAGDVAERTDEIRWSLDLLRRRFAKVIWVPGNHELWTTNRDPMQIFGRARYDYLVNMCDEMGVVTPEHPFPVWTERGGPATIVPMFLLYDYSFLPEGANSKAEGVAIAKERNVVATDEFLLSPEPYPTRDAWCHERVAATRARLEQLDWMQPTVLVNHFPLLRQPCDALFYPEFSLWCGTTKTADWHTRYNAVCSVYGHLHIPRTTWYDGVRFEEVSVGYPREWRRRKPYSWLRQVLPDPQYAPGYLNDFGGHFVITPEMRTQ

Structure (SMILES) | transfer of biotin-labelled Ppt to apo-carrier protein, streptavidin blot [1] | IC50 [2] [µM]
CC(C)(COP(=O)(O)OP(=O)(O)OC[C@H]1O[C@@H](n2cnc3c(N)ncnc32)[C@H](O)[C@@H]1OP(=O)(O)O)[C@@H](O)C(=O)NCCC(=O)NCCSCC(=O)NCCOCCOCCNC(=O)CCCC[C@@H]1SC[C@@H]2NC(=O)N[C@@H]21 [biotin-PEG-ACM-CoA] | Upon incubation of the *CoA probe with apo-AcpM and Sfp | 
Nc1ncnc2c1ncn2[C@@H]1O[C@H](COP(=O)(O)O)[C@@H](O)[C@H]1O [AMP] |  | 456
